Test results taken from patent publication US7704502B2, “Combinations of antibodies selective for DR5 and other therapeutic agents” (The UAB Research Foundation, priority 2000, dated 2010).
Residues, ends and D or L forms follow the SMILES beside them. *: point of attachment. Cbz = O=C(OCc1ccccc1)*; CH2F = FC*

Assays:
Jurkat cells = test: Jurkat cell viability after overnight culture (ATPLite, MTT, PI exclusion); format: cell-based, human; conditions: 50 ng/ml TRA-8 overnight plus caspase inhibitor
Experimental: (§1) Cell viability is determined using (1) the ATPLite® kit according to the manufacturer's instructions (Packard Instruments, Meriden, Conn.); (2) the MTT Cell proliferation/viability kit (Sigma); or (3) PI staining of dead cells and analyzed by flow cytometry. At end of culture, cells are stained with 10 μg/ml PI and PI negative cells are gated as viable cells. For analysis of condensed nuclei of hepatocytes, cells are stained with 10 ng/ml Hoechst 33352 (Molecular Probes) and analyzed by flow cytometry.

MMP-1, 3, and 13 = test: Production of MMPs by RA synovial cells (ELISA); format: cell-based, human; conditions: overnight; 50 ng/ml interleukin 1b, 10 ng/ml TNF-a, 50 ng/ml TRAIL or TRA-8; vs medium control
Experimental: Thus, it is possible that TRAIL, like TNF-α, may serve as a pro-inflammatory cytokine. […] The levels of the MMP-1 and MMP-3 in the culture supernatants are determined by the ELISA kits.

NF-κb = test: Gel-shift assay of NF-κb activation in RA synovial cells; format: cell-based, human; conditions: 50 ng/ml TRAIL, Fas ligand or TRA-8; 20 ng/ml TNF-a
Experimental: There is considerable evidence to support the concept that there are close links between the signaling of apoptosis and the signaling of proliferation (45). It has been established that DR5 is able to activate a NF-kb pathway in addition to apoptosis signaling transduction, and that NF-κb activation may be able to transduce an anti-apoptosis signal. Therefore a gel-shift assay is carried out. […] The nuclear extracts are prepared and incubated with the […] [^32P]-labeled oligo-DNA probe. The results are analyzed using the cyclone phospha-imager (TopCount NXT, Packard Instrument Company, CT).

[1] = test system: 2LMP human breast cancer xenografts; test: TRA-8 therapy alone or with chemotherapy or radiation, breast cancer xenografts; format: in vivo, athymic nude mice
Experimental: Athymic nude mice were injected s.c. with 3×10^7 2LMP cells. […] The growth of tumors was monitored over time. […] Tumor size and regression rates were determined.
Data from 6 independent experiments were analyzed by individual experiment. Treatment combinations were compared with respect to in vivo anti-tumor efficacy, i.e., inhibition of tumor growth, which was measured as three endpoints; extension of tumor doubling times, percentage of tumor regressions, and growth rates over time. The actual number of days at which the tumor doubled in surface area (product of two diameters) relative to baseline on day 7 after tumor cell injection was used in the doubling time analysis. The nonparametric Kruskal-Wallis test was used for median tumor doubling time comparisons between treatments. Fisher's exact test was used to compare the proportions of tumor regressions and relapse-free regressions across treatment groups. To determine if any combination therapy produced significant synergistic inhibition of tumor growth, i.e., more than additive, the growth curves from the serial area measurements were compared using a linear mixed model approach over the first 3 weeks after start of therapy (Lindsey, J. K. Models for Repeated Measurements, pp. 100-142, Oxford, 1993). To test for synergistic effects of the combination therapies, an interaction term was included in the model. If the interaction term was significant and the effect was inhibition of growth at a rate greater than additive then the interaction was considered synergistic.
A total of 166 animals, 10 treatment groups, and 6 independent experiments were included in the aggregate analysis. Treatment combinations were compared with respect to in vivo anti-tumor efficacy. The median tumor doubling times were analyzed using the Kruskal-Wallis test and Fisher's exact test was used to compare the proportions of tumor regressions and relapse-free regressions across treatment groups.

2LMP xenografts = test: Analysis of apoptosis in xenografts (TUNEL); format: in vivo, athymic nude mice; conditions: day 14
Experimental: One group of mice was untreated. The xenografts were dissected for the study of apoptosis on day 14 after tumor cell injection. The reason for the substantial reduction in treatment intensity compared to our standard treatment protocol was to allow adequate tumor tissue for analysis on day 14. Tunel assay for apoptosis in tumor xenografts was performed as follows. Five-micron paraffin sections of tissue were mounted on Superfrost/Plus slides and heated at 58° C. for 1 h. Tissue sections were deparaffinized in three changes of xylene and rehydrated with one change of absolute ethanol, 95% ethanol, and 70% ethanol, each in 5-min increments. Then, the sections were placed in Tris-buffered saline (0.5M Tris base, 0.15 M NaCl, 0.0002% Triton X-100™, pH 7.6). Apoptotic nuclei were detected using an Apop Tag Peroxidase kit (Intergen, Purchase, N.Y.). Proteinase K (20 μg/ml in distilled deionized H2O) was added to the tissue specimens and incubated at room temperature for 15 min. Endogenous peroxidases were quenched with an aqueous solution of 3% hydrogen peroxide for 5 min. Sections were treated with an equilibration buffer for 30 min and then incubated with the TdT/enzyme (diluted in labeling reaction mix) for 1 h at 37° C. using parafilm covers. During this incubation, the TdT enzyme binds the 3′-OH ends of DNA fragments and catalyzes the addition of digoxigenin-labeled and unlabeled deoxynucleotides. Negative controls were incubated with distilled H2O (diluted in labeling reaction mix) instead of the TdT enzyme. A stop buffer was added for 10 min at room temperature to terminate the labeling reaction. An anti-digoxigenin conjugate was added to each slide for 30 min. The chromagen 3,3′ DAB was used to visualize the labeled 3′ OH end of DNA fragments. The slides were then rinsed in deionized water and lightly counterstained with hematoxylin, dehydrated using graded alcohols and xylene and coverlsipped using Permount. Approximately 10 random fields were evaluated for percentage of Tunel stained and percentage of intensely stained apoptotic bodies throughout the tissue.

DR5 = biological target: T1, DR5 (Homo sapiens, UniProt O14763); test: ELISA binding of TRAIL and TRA-8 to the receptors
T1 construct: fusing cDNA from residues 1-180 of the extracellular portion of DR5; made in house; host or cells: QBI-293A cells, recombinant adenovirus (pAdΔDR5-Fc)
Text: (§2) The reactions are developed by TMB substrate buffer and measured by the Benchmark Microplate Reader (BioRad). The Kd values are estimated by the one-site binding model of non-linear regression using GraphPad Prism® software (GraphPad Software, San Diego, Calif.).

DR4 = biological target: T2, DR4 (Homo sapiens, UniProt O00220); test: ELISA binding of TRAIL and TRA-8 to the receptors
T2 construct: a fusion protein comprising the extracellular domain of human DR5 or DR4 and the Fc region of human IgG1; human IgG1 Fc (Ig)
Experimental: as §2, with “ELISA plates are coated with 2 μg/ml of DR4-Ig or DR5-Ig fusion protein overnight. […] The reactions” for “The reactions”

[2] = test system: B lymphoma cell lines SKW6.4, EB-3, and Raji; test: Apoptosis susceptibility (ATPLite, overnight); format: cell-based, human; conditions: TRAIL plus crosslinker
Experimental: as §1

Daudi = test: Apoptosis susceptibility (ATPLite, overnight); format: cell-based, human; conditions: TRAIL plus crosslinker
Experimental: as §1

H-9 cells = test: Apoptosis susceptibility (ATPLite, overnight); format: cell-based, human; conditions: TRAIL plus crosslinker
Experimental: as §1

Jurkat and CEM-6 = test: Apoptosis susceptibility (ATPLite, overnight); format: cell-based, human; conditions: TRAIL plus crosslinker
Experimental: as §1

Molt-4 and U937 cells = test: Apoptosis susceptibility (ATPLite, overnight); format: cell-based, human; conditions: TRAIL plus crosslinker
Experimental: as §1

[3] = test system: Primary peripheral blood T cells; test: Apoptosis susceptibility (ATPLite, overnight); format: cell-based, human; conditions: TRAIL plus crosslinker
Experimental: as §1

U87, U937 and Molt-4 = test: Apoptosis susceptibility (ATPLite, overnight); format: cell-based, human
Experimental: as §1

[4] = test system: glioma cell lines Hs683 and U251-MG; test: Apoptosis susceptibility (ATPLite, overnight); format: cell-based, human
Experimental: as §1

primary B cells = test: Apoptosis susceptibility (ATPLite, overnight); format: cell-based, human; conditions: TRAIL plus crosslinker
Experimental: as §1

OA72M cells = test: Apoptosis of primary synovial cells; format: cell-based, human
Text: (§3) Cell viability is the percentage of the cpm of treated cells versus the cpm of untreated cells.
(§4) The expression of DR5 on a panel of eight primary cultured synovial cells from patients with RA is compared with that on eight primary cultured synovial cells from patients with osteoarthritis (hereinafter referred to as “OA”). The eight human primary RA synovial cell cultures RA-1014, RA-1016, RA-1021, RA-512, RA-707, RA-811, RA-716, and RA-929 are kindly provided by Dr. M. Ohtsuki (Sankyo Co. Ltd., Tokyo, Japan) and cultured in DMEM supplemented with 10% FCS, penicillin, streptomycin, and glutamine. The […] OA synovial cell primary cell cultures are isolated from the synovial tissues of OA patients by a standard collagenase method and cultured under the same conditions. The passage number of all primary cells is under 10. The expression of DR5 is determined by FACs analysis as described in Example 5.

[5] = test system: RA-1014, RA-811, RA-716, and RA929; test: Apoptosis of primary synovial cells; format: cell-based, human; conditions: high concentrations (>50 ng/ml)
Text: as §3, §4

[6] = test system: SV40 transformed synovial cells; test: Apoptosis of synovial cells; format: cell-based, human; conditions: data not shown
[7] = test system: non-transformed fibroblast cells; test: Apoptosis of fibroblast cells; format: cell-based
normal human hepatocytes = test: Hepatocellular toxicity, cell viability (ATPLite); format: cell-based
Text: For 24-hour cell viability assays, fresh normal human hepatocytes in 96-well plates were purchased from In Vitro Technology (Baltimore, Md.). […] For 6-hour viability assays, normal hepatocytes or hepatocellular cancer cells are isolated from fresh surgical specimens collected from UAB Tissue Procurement Center. All reagents for isolation of human hepatocytes including hepatocytes perfusion buffer, digest medium, washing medium, and attachment medium were purchased from Gibco. The tissue slides are digested in the Hepatocyte Digest Medium at 37° C. with shaking (50 rpm) for one hour. The isolated hepatocytes are harvested by low speed centrifugation (50 g, 3 min), and washed with the Hepatocyte Washing Medium six times. Single cell suspension of hepatocytes are cultured in the Attachment Medium containing 10% FCS in 96-well Matrigel plates (BD) for six hours. Non-attached hepatocytes are removed by twice washing with pre-warmed attachment medium.

HepG2 cells = test: Cell viability (ATPLite); format: cell-based, human; conditions: 8-hour culture period
[8] = Induction of hepatitis in vivo by tetracycline-inducible adenoviral vectors; parameters: species or system B6 mice; conditions: 10 μg in Ad/TRAIL inoculated mice, AST at 24 hours
Experimental: 8-10 week-old female B6 mice are intravenously injected with 10^9 pfu of Ad/hTRAIL with the equal number of Ad/Tet-on. Mice are fed with different concentrations of tetracycline in their drinking water immediately after inoculation of adenoviral vectors. Liver injury is determined by serum levels of AST using an AST diagnostic kit (Sigma). Expression of TRAIL is determined by Northern blot analysis.

[9] = aggregate of 6 experiments, number of animals (%)
[10] = aggregate of 6 experiments, relative to day 7

T1 sequence (O14763 56-180): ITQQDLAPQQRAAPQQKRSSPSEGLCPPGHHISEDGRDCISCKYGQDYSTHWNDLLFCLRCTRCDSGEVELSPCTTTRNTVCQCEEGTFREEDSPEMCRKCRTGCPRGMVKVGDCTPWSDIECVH
T2 sequence (O00220 24-239 limits assumed): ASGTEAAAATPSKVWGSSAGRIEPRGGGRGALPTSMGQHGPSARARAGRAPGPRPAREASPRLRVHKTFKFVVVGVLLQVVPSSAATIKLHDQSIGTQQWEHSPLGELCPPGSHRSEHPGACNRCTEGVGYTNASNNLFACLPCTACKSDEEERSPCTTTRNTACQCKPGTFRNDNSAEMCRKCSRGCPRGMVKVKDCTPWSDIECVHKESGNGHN

Question: For `CC(NC(=O)C(NC(=O)OCc1ccccc1)C(C)C)C(=O)NC(CC(=O)O)C(=O)CF` (stereo not drawn) [Z-VAD] (Cbz-Val-Ala-Asp-CH2F; configuration not given here), which “inhibition of TRA-8-induced cell death” value (Jurkat cells) is on record?
Answer: The value was “completely inhibited”.

Question: For IL-1b: proinflammatory cytokine, which “production/release of MMPs” value (MMP-1, 3, and 13) is on record?
Answer: Its value is “increased”.

Question: Which NF-κb activation (NF-κb) does the source give for TNF-α here?
Answer: The NF-κb activation was “activated in a time-dependent fashion”.

Question: And the “production/release of MMPs” value (MMP-1, 3, and 13)?
Answer: Its value is “increased”.

Question: Which results are given for `COc1cccc2c1C(=O)c1c(O)c3c(c(O)c1C2=O)C[C@@](O)(C(=O)CO)C[C@@H]3O[C@H]1C[C@H](N)[C@H](O)[C@H](C)O1` [Adriamycin, adriamycin (doxorubicin)]?
Answer: Complete Regressions No relapse (%) [1, 9]: 0; Complete Regressions Total (%) [1, 9]: 0; Tumor Doubling Time (mean) [1, 10]: 17 days; Tumor Doubling Time (median) [1, 10]: 18 days; inhibition of tumor growth compared to untreated controls ([1]; individual experiments, TRA-8 200 μg i.p. x6, adriamycin 6 mg/kg, paclitaxel 20 mg/kg, 3 Gy 60Co, Kruskal-Wallis on doubling times): did not differ from controls; TUNEL stained cells (2LMP xenografts; 100 μg TRA-8 days 7, 10, adriamycin 3 mg/kg or paclitaxel 10 mg/kg days 8, 11, untreated 4%): 8%; intensely stained cells (2LMP xenografts; same regimen, untreated 1%): 6%

Question: What does the source list for “TRAIL: soluble recombinant human TRAIL (aa 95 to 281) FLAG-tagged fusion protein, Alexis; used with anti-FLAG crosslinker”?
Answer: binding to immobilized DR5 (DR5): bound comparably; binding to DR4 (DR4): bound to DR4; susceptibility to apoptosis [2]: very susceptible; susceptibility to apoptosis (Daudi): much less susceptible; susceptibility to apoptosis (H-9 cells): resistant; susceptibility to apoptosis (Jurkat and CEM-6): highly susceptible; susceptibility to apoptosis (Molt-4 and U937 cells): partially susceptible; susceptibility to apoptosis [3]: resistant; susceptibility to apoptosis (U87, U937 and Molt-4): exhibited sensitivity; susceptibility to apoptosis [4]: resistant; susceptibility to apoptosis (primary B cells): did not undergo apoptosis; susceptibility to apoptosis (OA72M cells): completely resistant; cell death [5]: ~100%; susceptibility to apoptosis [6]: susceptible; susceptibility to apoptosis [7]: resistant; NF-κb activation (NF-κb): activated in a time-dependent fashion; production/release of MMPs (MMP-1, 3, and 13): not associated with increased release; hepatocytes killed in the presence of cycloheximide (normal human hepatocytes; 1 μg/ml TRAIL or TRA-8, 1 μg/ml cycloheximide, four-hour culture): greater than 70%; hepatocytes killed (normal human hepatocytes; 1 μg/ml, end of 24-hour culture, TRAIL plus crosslinker): more than 80%; hepatocytes killed (normal human hepatocytes; 6-hour culture, 500 ng/ml): Over 20%; cells killed (HepG2 cells): ~100%; liver injury after intravenous injection [8]: did not exhibit increased liver injury

B1: Fas ligand: soluble Fas ligand used with enhancer/crosslinker (protein, UniProt P48023 103-281, looked up)
extracellular domain: QLFHLQKELAELRESTSQMHTASSLEKQIGHPSPPPEKKELRKVAHLTGKSNSRSMPLEWEDTYGIVLLSGVKYKKGGLVINETGLYFVYSKVYFRGQSCNNLPLSHKVYMRNSKYPQDLVMMEGKMMSYCTTGQMWARSSYLGAVFNLTSADHLYVNVSELSLVNFEESQTFFGLYKL
modifications: extracellular domain
notes: soluble Fas ligand used with enhancer/crosslinker
Question: Which results are given for B1?
Answer: NF-κb activation (NF-κb): unable to induce; difference in susceptibility among normal hepatocytes, hepatocellular carcinoma cells, and HepG2 cells (normal human hepatocytes; Fas-mediated apoptosis, 6 hours): no significant difference
